Assay results reported in US6362134B1, “Herbicidal 1,2,4,6-thiatriazines” (Syngenta Investment Corporation, priority 1996, dated 2002).

Experiments:
Assay type in all cases: in vivo
[1] = tested on: Sinapis; assay: Herbicidal action before emergence of the plants (pre-emergent action); parameters: key: 1=complete damage; 9=no action; Ratings of 1 to 4 (in particular 1 to 3) mean a good to very good herbicidal action; conditions: 2000 g of active substance/ha, sprayed immediately after sowing, evaluated after 3 weeks, ratings scale of nine levels
Protocol: (§1) Monocotyledon and dicotyledon test plants are sown in standard soil in plastic pots. Immediately after sowing, the test substances are sprayed on (500 l of water/ha) in an aqueous suspension prepared from a 25% wettable powder (Example F3, b)), corresponding to a dosage of 2000 g of active substance/ha. The test plants are then grown under optimum conditions in a greenhouse. After a test period of 3 weeks, the test is evaluated with a ratings scale of nine levels (1=complete damage, 9=no action). Ratings of 1 to 4 (in particular 1 to 3) mean a good to very good herbicidal action.
(§2) Test plants: Avena, Setaria, Sinapis, Stellaria

[2] = tested on: Setaria; assay: as above; parameters: key: 1=complete damage; 9=no action; Ratings of 1 to 4 (in particular 1 to 3) mean a good to very good herbicidal action; conditions: 2000 g of active substance/ha, sprayed immediately after sowing, evaluated after 3 weeks, ratings scale of nine levels
Protocol: as §1, §2

[3] = tested on: Stellaria; assay: as above; parameters: key: 1=complete damage; 9=no action; Ratings of 1 to 4 (in particular 1 to 3) mean a good to very good herbicidal action; conditions: 2000 g of active substance/ha, sprayed immediately after sowing, evaluated after 3 weeks, ratings scale of nine levels
Protocol: as §1, §2

[4] = tested on: Sinapis; assay: Post-emergent herbicidal action (contact herbicide); parameters: key: 1=complete damage; 9=no action; Ratings of 1 to 4 (in particular 1 to 3) mean a good to very good herbicidal action; conditions: 2000 g of active substance/ha, sprayed in the 4- to 6-leaf stage, evaluated after about 18 days, ratings scale 1-9
Protocol: (§3) Monocotyledon and dicotyledon test plants are grown in plastic pots with standard soil in a greenhouse and, in the 4- to 6-leaf stage, are sprayed with an aqueous suspension of the test substances of the formula 1, prepared from a 25% wettable power (Example F3, b)), corresponding to a dosage of 2000 g of active substance/ha (500 l of water/ha). The test plants are then grown further in the greenhouse under optimum conditions. After a test period of about 18 days, the test is evaluated with a ratings scale of 9 levels (1=complete damage, 9=no action). Ratings of 1 to 4 (in particular 1 to 3) mean a good to very good herbicidal action.
(§4) Test plants: Sinapis, Stellaria

[5] = tested on: Stellaria; assay: as above; parameters: key: 1=complete damage; 9=no action; Ratings of 1 to 4 (in particular 1 to 3) mean a good to very good herbicidal action; conditions: 2000 g of active substance/ha, sprayed in the 4- to 6-leaf stage, evaluated after about 18 days, ratings scale 1-9
Protocol: as §3, §4

[6] = tested on: Avena; assay: Herbicidal action before emergence of the plants (pre-emergent action); conditions: 2000 g of active substance/ha, sprayed immediately after sowing, evaluated after 3 weeks, ratings scale of nine levels (1=complete damage, 9=no action)
Protocol: as §1, §2

## CC1CN(S2=NC(N)=NC(Oc3c(F)c(F)c(F)c(F)c3F)=N2)CCC(C)(C)C1 (single isomer, unassigned) [6.92]
[1]
  Pre-emergent action, rating, Sinapis: 1
[2]
  Pre-emergent action, rating, Setaria: 1
[3]
  Pre-emergent action, rating, Stellaria: 1
[4]
  Post-emergent action, rating, Sinapis: 1
[5]
  Post-emergent action, rating, Stellaria: 1
[6]
  Pre-emergent action, rating, Avena: 4

## CC1CN(S2=NC(N)=NC(Oc3c(F)c(F)c(F)c(F)c3F)=N2)CCC(C)(C)C1 (single isomer, unassigned) [6.93]
[1]
  Pre-emergent action, rating, Sinapis: 1
[2]
  Pre-emergent action, rating, Setaria: 1
[3]
  Pre-emergent action, rating, Stellaria: 1
[4]
  Post-emergent action, rating, Sinapis: 1
[5]
  Post-emergent action, rating, Stellaria: 1
[6]
  Pre-emergent action, rating, Avena: 2

## CC1(C)CC2CC(C)(CN2S2=NC(N)=NC(Oc3c(F)c(F)c(F)c(F)c3F)=N2)C1 (single isomer, unassigned) [6.153]
[1]
  Pre-emergent action, rating, Sinapis: 1
[2]
  Pre-emergent action, rating, Setaria: 3
[3]
  Pre-emergent action, rating, Stellaria: 1
[4]
  Post-emergent action, rating, Sinapis: 1
[5]
  Post-emergent action, rating, Stellaria: 2
[6]
  Pre-emergent action, rating, Avena: 4

## CC1(C)CC2CC(C)(CN2S2=NC(N)=NC(Oc3c(F)c(F)c(F)c(F)c3F)=N2)C1 (single isomer, unassigned) [6.154]
[1]
  Pre-emergent action, rating, Sinapis: 1
[2]
  Pre-emergent action, rating, Setaria: 1
[3]
  Pre-emergent action, rating, Stellaria: 1
[4]
  Post-emergent action, rating, Sinapis: 1
[5]
  Post-emergent action, rating, Stellaria: 1
[6]
  Pre-emergent action, rating, Avena: 4

## CC1(C)CCC(OS2=NC(N)=NC(Oc3c(F)c(F)c(F)c(F)c3F)=N2)CC1 (stereo not drawn) [5.52]
[1]
  Pre-emergent action, rating, Sinapis: 1
[2]
  Pre-emergent action, rating, Setaria: 2
[3]
  Pre-emergent action, rating, Stellaria: 1
[4]
  Post-emergent action, rating, Sinapis: 2
[5]
  Post-emergent action, rating, Stellaria: 2
[6]
  Pre-emergent action, rating, Avena: 4

## CC1CC(OS2=NC(N)=NC(Oc3c(F)c(F)c(F)c(F)c3F)=N2)CC(C)(C)C1 (stereo not drawn) [5.78]
[1]
  Pre-emergent action, rating, Sinapis: 2
[2]
  Pre-emergent action, rating, Setaria: 2
[3]
  Pre-emergent action, rating, Stellaria: 1
[4]
  Post-emergent action, rating, Sinapis: 2
[5]
  Post-emergent action, rating, Stellaria: 3
[6]
  Pre-emergent action, rating, Avena: 3

## CC1CC(C)CC(OS2=NC(N)=NC(Oc3c(F)c(F)c(F)c(F)c3F)=N2)C1 (stereo not drawn) [5.120]
[1]
  Pre-emergent action, rating, Sinapis: 1
[2]
  Pre-emergent action, rating, Setaria: 2
[3]
  Pre-emergent action, rating, Stellaria: 1
[4]
  Post-emergent action, rating, Sinapis: 2
[5]
  Post-emergent action, rating, Stellaria: 3
[6]
  Pre-emergent action, rating, Avena: 4

## CC(C)(C)C1CCC(OS2=NC(N)=NC(Oc3c(F)c(F)c(F)c(F)c3F)=N2)CC1 (stereo not drawn) [5.127]
[1]
  Pre-emergent action, rating, Sinapis: 1
[2]
  Pre-emergent action, rating, Setaria: 2
[3]
  Pre-emergent action, rating, Stellaria: 1
[4]
  Post-emergent action, rating, Sinapis: 2
[5]
  Post-emergent action, rating, Stellaria: 3
[6]
  Pre-emergent action, rating, Avena: 4

## CC1(C)CCCC(OS2=NC(N)=NC(Oc3c(F)c(F)c(F)c(F)c3F)=N2)C1 (stereo not drawn) [5.131]
[1]
  Pre-emergent action, rating, Sinapis: 1
[2]
  Pre-emergent action, rating, Setaria: 2
[3]
  Pre-emergent action, rating, Stellaria: 1
[4]
  Post-emergent action, rating, Sinapis: 1
[5]
  Post-emergent action, rating, Stellaria: 3
[6]
  Pre-emergent action, rating, Avena: 4
